Test results as given in US9931355B2, “Combination of compounds derived from gallic acid for the treatment of cancer” (PONTIFICLA UNIVERSIDAD JAVERIANA, priority 2012, dated 2018).
In brackets after ≈: the same amount, converted by molar mass.

How the values were obtained:
Assay type in all cases: cell-based
A375 (human melanoma) = test: MTT cytotoxicity assay on A375 cells; conditions: A-375, 48 hours, read-out: 50% inhibitory concentration
Procedure: The human cell lines used were K562 (human erythroleukemia) MCF7 (human breast cancer) and A375 (human melanoma). The murine cell lines used were Mel Rel (murine melanoma) and 4T1 (murine mammary cancer). These cells were maintained in RPMI 1640 medium supplemented with 10% fetal calf serum, 2 mM of L-glutamine, 100 U of penicillin, 100 μg/ml of streptomycin and 0.01 M of HEPES (Eurobio, Toulouse, FR) at 37° C. with 5% CO2 under a humid atmosphere. The cell line 4T1 was also maintained with 1 mM of sodium pyruvate (Eurobio, Toulouse, FR). For the assays on normal cells, human mononucleocytes from the venous peripheral blood of healthy donors (PBMC) were obtained, and were separated by centrifugation using a Ficoll-Hypaque density gradient (GE Healthcare Bio-Sciences AB, Bjorkgatan, Uppsala, Sweden).
The cytotoxic effect of the combination of the invention on tumor cells and normal cells was evaluated by direct microscopic observation and via assays with MTT (Sigma, Saint Louis Mo., USA). […] The formazan crystals were dissolved with dimethyl sulfoxide (DMSO) and the optical density was measured at 540 nm in a Multiskan MCC/340 machine (Labsystems, Thermo Fisher Scientific, Waltham, USA).
The cytotoxic effect of FA-CS was evaluated with MTT on various tumoral cell lines. The […] value on the various cell lines was calculated using the Minitab software. […]

[1] = tested on: 4T1 (murine mammary cancer); test: MTT cytotoxicity assay on 4T1 cells; conditions: Mus musculus, 48 hours, read-out: 50% inhibitory concentration
Procedure: (§1) The human cell lines used were K562 (human erythroleukemia) MCF7 (human breast cancer) and A375 (human melanoma). The murine cell lines used were Mel Rel (murine melanoma) and 4T1 (murine mammary cancer). […] The cell line 4T1 was also maintained with 1 mM of sodium pyruvate (Eurobio, Toulouse, FR). For the assays on normal cells, human mononucleocytes from the venous peripheral blood of healthy donors (PBMC) were obtained, and were separated by centrifugation using a Ficoll-Hypaque density gradient (GE Healthcare Bio-Sciences AB, Bjorkgatan, Uppsala, Sweden). The cytotoxic effect of the combination of the invention on tumor cells and normal cells was evaluated by direct microscopic observation and via assays with MTT (Sigma, Saint Louis Mo., USA). […] The formazan crystals were dissolved with dimethyl sulfoxide (DMSO) and the optical density was measured at 540 nm in a Multiskan MCC/340 machine (Labsystems, Thermo Fisher Scientific, Waltham, USA). The cytotoxic effect of FA-CS was evaluated with MTT on various tumoral cell lines. The […] value on the various cell lines was calculated using the Minitab software. […]

[2] = tested on: K562 (human erythroleukemia); test: MTT cytotoxicity assay on K562 cells; conditions: 48 hours, read-out: 50% inhibitory concentration
Procedure: as §1

Fibroblasts = test: MTT cytotoxicity assay on fibroblasts; conditions: Fibroblast, read-out: 50% inhibitory concentration
[3] = tested on: MCF7 (human breast cancer); test: MTT cytotoxicity assay on MCF7 cells; conditions: 48 hours, read-out: 50% inhibitory concentration
Procedure: as §1

| SMILES | IC50 (A375 (human melanoma)) | IC50 [1] | IC50 [2] | IC50 (Fibroblasts) | IC50 [3] |
| --- | --- | --- | --- | --- | --- |
| COc1cccc2c1C(=O)c1c(O)c3c(c(O)c1C2=O)C[C@@](O)(C(=O)CO)C[C@@H]3O[C@H]1C[C@H](N)[C@H](O)[C@H](C)O1 [Doxorubicin] | 0.02 ± 0.1 µg/mL | 0.5 ± 0.1 µg/mL | 0.2 ± 0.1 µg/mL | 0.4 ± 0.1 µg/mL (≈ 0.736 µM) | – |
| O=C(O)c1cc(O)c(O)c(O)c1 [Gallic acid] | – | 96.2 µg/mL | 18.2 ± 0.1 µg/mL | – | 4.07 ± 0.04 µg/mL |
